Here are results for 3 molecules from paper PMC8609367 (mBio, 2021).

On the set-up of data set [1]: method as in PMID 1380976. The following applies: cited from earlier work.
Details of data set [2]: method as in PMID 1380976. The following applies: cited from earlier work. This is another data set of the same source.
For data set [3], the system named is FKBP12. Also noted: method as in PMID 1380976. The following applies: cited from earlier work.
The target in data set [4] is T1, hFKBP12 (Homo sapiens, UniProt P62942).
T1 construct: His6 (thrombin-cleavable) (N, cleaved yes); made in house; host or cells: E. coli BL21(DE3)
In words: ITC binding to human FKBP12. Here is the method: (§1) The lower panel represents the integrated heat changes upon binding (kilocalories/mole) corrected for the protein and ligand heat of dilution. Fitting was performed using the MicroCal Origin software. Download FIG S2, TIF file, 0.9 MB.
(§2) After the size exclusion purification, the proteins were concentrated to ∼2 mg/ml using a 3,000-MWCO Amicon concentrator. Proteins were exhaustively dialyzed at 4°C in the isothermal titration calorimetry (ITC) buffer (50 mM sodium phosphate, 50 mM sodium chloride, pH 7.0). Experiments were performed using a VP-ITC instrument (MicroCal Inc., Northampton, MA) at 25°C. All solutions were degassed under vacuum at 25°C for 15 min immediately before use. […] was loaded into the syringe at a concentration of 25 μM and titrated in by a first injection of 2 μl followed by 22 injections of 6 μl. Following each injection, the cell was equilibrated for 3 min. […] The proteins were loaded in the cell at a concentration of 10 μM with constant stirring at 307 rpm (25°C). […] The enthalpy of binding (ΔH, kilocalories/mole) was determined by integration of the injection peaks minus the controls for the heat of dilution (equivalent experiments without the ligand and without the protein). The MicroCal Origin software (OriginLab Corp., Northampton, MA) was used for a variety of binding models.

For data set [5], the target named is T2, McFKBP12 (Mucor circinelloides, UniProt U3N5X4).
T2 sequence (U3N5X4 1-108): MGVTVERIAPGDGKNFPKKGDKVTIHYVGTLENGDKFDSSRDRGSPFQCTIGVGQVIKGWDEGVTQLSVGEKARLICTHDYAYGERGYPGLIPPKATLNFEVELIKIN
The data set can be described thus: ITC binding to M. circinelloides FKBP12. Conditions: for Kd / Stoichiometry / TΔS / ΔG° / ΔH: ITC, 25°C, average from triplicates. How it is done: as §1, §2

Data set [6] concerns T helper cell-dependent germinal center B cell response. Also noted: method as in PMID 31537789. The following applies: cited from earlier work.
In data set [7] the test system is A. fumigatus strains expressing McFKBP12 or McFKBP12-Y88F. In words: Growth assay of A. fumigatus strains expressing FKBP12 variants in presence of FK506. It counts as cell-based, Aspergillus fumigatus.
Method: A. fumigatus wild-type strain akuB^KU80 was used for growth and recombinant strain generation experiments. A. fumigatus wild-type or recombinant strains were cultured on glucose minimal medium (GMM) or RPMI liquid medium at 37°C for 24- or 48-h- periods. […] All growth experiments were repeated as technical triplicates, each also as biological triplicates.
For data set [8], the target named is T3, AfFKBP12 (Aspergillus fumigatus, UniProt Q4WLV6).
T3 construct: His6 (thrombin-cleavable) (N, cleaved yes); made in house; host or cells: E. coli BL21(DE3)
T3 sequence (Q4WLV6 1-112): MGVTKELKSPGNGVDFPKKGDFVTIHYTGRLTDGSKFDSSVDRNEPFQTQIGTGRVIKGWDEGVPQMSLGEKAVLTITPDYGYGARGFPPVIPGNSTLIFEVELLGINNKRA
The data set can be described thus: biochemical. It counts as binding. The following applies: for TΔS / ΔG° / ΔH / Stoichiometry / Kd: ITC, 25°C, average from triplicates; for Stoichiometry: ligand-FKBP12. Here is the method: as §1, §2

The nature of data set [9]: Solubility noted in ITC set-up. It counts as physicochemical. The following applies: restricting the usable concentration in ITC. How it is done:
as §2

The subject of data set [10] is Cryptococcus neoformans. Also noted: method as in PMID 31537789. Conditions: C. neoformans; cited from earlier work.
In data set [11] the test system is interleukin-2 (IL-2) production in primary murine CD4+ T cells. More on the design: method as in PMID 31537789. Conditions: reduction of IL-2 production in primary murine CD4+ T cells; cited from earlier work.
For data set [12], the system named is cryptococcal model of invasive fungal infection. Also noted: method as in PMID 31537789. Conditions: murine model; cited from earlier work.
Data set [13] has as its system Candida albicans. Also noted: method as in PMID 31537789. Conditions: in vitro; cited from earlier work.
[14] abbreviates: ITC, 25°C, average from triplicates.

≈ marks a conversion by molar mass, not a printed value. Where “and” joins values, the source holds several entries; their conditions need not be identical. Equal values may be shown once.

T1 sequence (P62942 whole entry): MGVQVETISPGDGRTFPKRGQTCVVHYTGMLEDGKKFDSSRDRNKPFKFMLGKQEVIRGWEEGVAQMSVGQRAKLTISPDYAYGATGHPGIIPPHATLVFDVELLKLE

For the molecule `CC[C@@H]1/C=C(\C)[C@@H](O)[C@H](C)C[C@H](OC)[C@H]2O[C@@](O)(C(=O)C(=O)N3CCCC[C@H]3C(=O)O[C@H](/C(C)=C/[C@@H]3CC[C@@H](O)[C@H](OC)C3)[C@H](C)[C@@H](O)CC1=O)[C@H](C)C[C@@H]2OC` [L-685,818], the Antifungal activity entry in data set [1] is “retains antifungal activity”. Also, in data set [2], the Immunosuppressive activity entry was “nonimmunosuppressive”. In data set [3], the “Binding to FKBP12” value is listed as “still binds to FKBP12”.

In the case of `C=CC[C@@H]1/C=C(\C)C[C@H](C)C[C@H](OC)[C@H]2O[C@@](O)(C(=O)C(=O)N3CCCC[C@H]3C(=O)O[C@H](/C(C)=C/[C@@H]3CC[C@@H](O)[C@H](OC)C3)[C@H](C)[C@@H](O)CC1=O)[C@H](C)C[C@@H]2OC` [FK506, reference compound], in [4] (setting [14]), the Stoichiometry was 1.09 ± 0.03, the TΔS is -3.3 ± 1.2 kcal/mol, the “ΔG°” value is -12.0 ± 1.6 kcal/mol and the ΔH was -15.0 ± 1.1 kcal/mol. Moreover, in data set [5], the dissociation constant Kd stood at 3 ± 0.7 nM, the Stoichiometry came out at 1.06 ± 0.06, the TΔS was found to be 1.9 ± 0.2 kcal/mol and the “ΔG°” value is -11.7 ± 0.2 kcal/mol. Moreover, the ΔH in data set [5] is -9.8 ± 0.1 kcal/mol. Besides, in data set [6] (animal models), the “Toxicity in animal models” value was “acute toxicity”. The “FK506 sensitivity of A. fumigatus strain expressing McFKBP12” value in data set [7] (Affkbp12 locus replaced with Mcfkbp12, increasing concentrations of FK506) was “does not restore A. fumigatus FK506 sensitivity”. Further, the “FK506 sensitivity of A. fumigatus strain expressing McFKBP12-Y88F” value in data set [7] (McFKBP12-Y88F mutant) is on record as “restoration of FK506 sensitivity”. For the same molecule, in [8], the TΔS stood at 4.6 ± 0.3 kcal/mol, the “ΔG°” value was -11.3 ± 0.4 kcal/mol, the ΔH is -6.7 ± 0.3 kcal/mol and the Stoichiometry was found to be 2.02 ± 0.06. In data set [8], this molecule showed an equilibrium dissociation constant (Kd) of 4.7 ± 0.6 nM.

Consider `C=CCC1C=C(C)CC(C)CC(OC)C2OC(O)(C(=O)C(=O)N3CCCCC3C(=O)OC(C(C)=CC3CCC(O)C(OC)C3)C(C)C(O)CC1=NNC(C)=O)C(C)CC2OC` (stereo not drawn) [APX879], for which the “Reduction in affinity compared to FK506” value in data set [4] (ITC KD, APX879 versus FK506) was approximately 40 fold. Also, in [4] (setting [14]), the dissociation constant (Kd) was ~120 nM and 119 nM; the Stoichiometry was found to be 1.41 ± 0.03; the TΔS is listed as 7.4 ± 0.8 kcal/mol; the “ΔG°” value is -9.2 ± 0.9 kcal/mol. Also, the ΔH in [4] (setting [14]) is -1.8 ± 0.4 kcal/mol. Besides, the Solubility entry in [9] is “low solubility”. Further, the “Reduction in affinity compared to FK506” value in data set [5] (ITC KD, APX879 versus FK506) is given as approximately 40 fold. Moreover, in data set [5], the Kd was ~120 nM and 126 nM; the Stoichiometry is listed as 0.93 ± 0.17; the TΔS stood at 7.4 ± 0.2 kcal/mol; the “ΔG°” value is -9.4 ± 0.2 kcal/mol. Moreover, the ΔH in data set [5] is -2.0 ± 0.1 kcal/mol. In addition, the “Reduction in antifungal efficacy compared to FK506” value in data set [10] is reported as 17 fold. The “Ability to stimulate T helper cell-dependent germinal center B cell response” value in [6] (in comparison to FK506 treatment, animal models) is recorded as “significant reduction”. In addition, in data set [6] (murine model), the “Immunosuppressive activity in vivo” value is given as “reduced immunosuppressive activity”. Moreover, the “Reduced immunosuppressive activity compared to FK506” value in [11] is 71 fold. Also, in data set [12], the “Efficacy in cryptococcal model” value is listed as “confirmed efficacy”. Further, the MIC in data set [13] was 8 µg/mL (≈ 9.3 µM). Also, in [8] (ITC KD, APX879 versus FK506), the “Reduction in affinity compared to FK506” value is listed as 100 fold. Moreover, in data set [8], the TΔS was 7.2 ± 1.0 kcal/mol, the “ΔG°” value is -8.0 ± 1.0 kcal/mol, the ΔH is -1.2 ± 0.4 kcal/mol and the Stoichiometry is given as 1.96 ± 0.13. Further, the Kd in data set [8] came out at 462 nM.

The term Kd denotes the concentration at which binding is half-saturated. A higher Kd goes with lower affinity. One may read the MIC as the least concentration at which growth counts as inhibited.
